The record followed here is patent publication US10782295B2, “Cysteine-reactive ligand discovery in proteomes” (THE SCRIPPS RESEARCH INSTITUTE, priority 2013, dated 2020).

The structures appear in SMILES notation.

Holding throughout (experiment): competitive isoTOP-ABPP, MDA-MB-231 soluble proteome
Common to all, as to format: binding

One test has as its target T1, HPCA (Homo sapiens, UniProt P84074).
T1 construct: directly in native proteomes; endogenous in cells; host or cells: MDA-MB-231
Conditions: 100 μM LDE, 60 min; peptide LLQC*DPSSASQF

For a further test, the target named is T2, MACROD1 (Homo sapiens, UniProt Q9BQ69).
T2 construct: directly in native proteomes; endogenous in cells; host or cells: MDA-MB-231
T2 sequence (Q9BQ69 1-325): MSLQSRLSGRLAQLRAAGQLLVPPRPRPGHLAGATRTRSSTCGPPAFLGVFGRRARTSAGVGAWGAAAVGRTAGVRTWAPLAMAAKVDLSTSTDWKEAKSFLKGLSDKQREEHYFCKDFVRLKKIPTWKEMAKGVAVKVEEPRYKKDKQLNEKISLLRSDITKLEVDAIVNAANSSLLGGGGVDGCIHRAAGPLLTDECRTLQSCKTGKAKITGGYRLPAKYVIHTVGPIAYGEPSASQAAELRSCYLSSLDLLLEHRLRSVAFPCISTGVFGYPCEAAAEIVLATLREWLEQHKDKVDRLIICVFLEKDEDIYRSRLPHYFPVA
The following applies: 100 μM LDE, 60 min; peptide LEVDAIVNAANSSLLGGGGVDGC*IHR.

A further test addresses T3, PSMB8 (Homo sapiens, UniProt P28062).
T3 construct: directly in native proteomes; endogenous in cells; host or cells: MDA-MB-231
T3 sequence (P28062 73-276): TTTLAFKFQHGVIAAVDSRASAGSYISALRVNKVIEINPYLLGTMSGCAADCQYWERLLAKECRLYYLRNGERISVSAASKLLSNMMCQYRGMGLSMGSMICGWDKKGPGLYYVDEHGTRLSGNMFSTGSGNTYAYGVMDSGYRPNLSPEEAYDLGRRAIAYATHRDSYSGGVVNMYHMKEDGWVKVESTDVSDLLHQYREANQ
The following applies: 100 μM LDE, 60 min; peptide LLSNMMC*QYR.

A further test deals with T4, REEP5 (Homo sapiens, UniProt Q00765).
T4 construct: directly in native proteomes; endogenous in cells; host or cells: MDA-MB-231
The following applies: 100 μM LDE, 60 min; peptide NC*MTDLLAK.

Another test addresses T5, RPL24 (Homo sapiens, UniProt P83731).
T5 construct: directly in native proteomes; endogenous in cells; host or cells: MDA-MB-231
The following applies: 100 μM LDE, 60 min; peptide C*ESAFLSK.

The next test deals with T6, TNRC5 (Homo sapiens, UniProt Q9BT09).
T6 construct: directly in native proteomes; endogenous in cells; host or cells: MDA-MB-231
T6 sequence (Q9BT09 31-278): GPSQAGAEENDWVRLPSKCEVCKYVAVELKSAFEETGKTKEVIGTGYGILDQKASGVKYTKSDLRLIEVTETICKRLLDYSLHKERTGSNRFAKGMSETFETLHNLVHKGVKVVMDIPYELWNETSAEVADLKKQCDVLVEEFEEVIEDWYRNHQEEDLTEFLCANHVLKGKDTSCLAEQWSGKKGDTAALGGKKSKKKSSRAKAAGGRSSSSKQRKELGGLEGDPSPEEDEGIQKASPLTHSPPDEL
Conditions: 100 μM LDE, 60 min; peptide QC*DVLVEEFEEVIEDWYR

T4 sequence (Q00765 whole entry): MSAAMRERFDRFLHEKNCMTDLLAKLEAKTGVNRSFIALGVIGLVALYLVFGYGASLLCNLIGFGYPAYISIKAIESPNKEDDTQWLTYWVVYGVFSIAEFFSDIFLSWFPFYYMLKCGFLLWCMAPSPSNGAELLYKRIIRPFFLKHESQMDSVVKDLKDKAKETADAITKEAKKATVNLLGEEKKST

Regarding `CCCCCCCCCCCCC/C=C/C=O` [2-HD, 2-trans-hexadecenal], the “R value (isoTOP-ABPP ratio heavy/light) for IA-labeled cysteine of HPCA” value at HPCA is 1.13. For the same compound, at MACROD1, the “R value (isoTOP-ABPP ratio heavy/light) for IA-labeled cysteine of MACROD1” value is reported as 1.02. Moreover, the “R value (isoTOP-ABPP ratio heavy/light) for IA-labeled cysteine of PSMB8” value at PSMB8 is on record as 1.05. The “R value (isoTOP-ABPP ratio heavy/light) for IA-labeled cysteine of REEP5” value at REEP5 worked out at 1.18. The “R value (isoTOP-ABPP ratio heavy/light) for IA-labeled cysteine of RPL24” value on RPL24 is reported as 1.25. Also, at TNRC5, the “R value (isoTOP-ABPP ratio heavy/light) for IA-labeled cysteine of TNRC5” value was determined as 1.06.
Regarding `CCCCCC(O)/C=C/C=O` (stereo not drawn) [4-HNE, 4-Hydroxynonenal], at HPCA, the “R value (isoTOP-ABPP ratio heavy/light) for IA-labeled cysteine of HPCA” value is 2.17. At MACROD1, the “R value (isoTOP-ABPP ratio heavy/light) for IA-labeled cysteine of MACROD1” value worked out at 1.56. The “R value (isoTOP-ABPP ratio heavy/light) for IA-labeled cysteine of PSMB8” value at PSMB8 is on record as 1.19. For the same compound, the “R value (isoTOP-ABPP ratio heavy/light) for IA-labeled cysteine of REEP5” value on REEP5 amounted to 7.08. Further, on RPL24, the “R value (isoTOP-ABPP ratio heavy/light) for IA-labeled cysteine of RPL24” value was 1.74. In addition, the “R value (isoTOP-ABPP ratio heavy/light) for IA-labeled cysteine of TNRC5” value at TNRC5 was determined as 1.29.
For the compound `CCCCC/C=C/C=C1/C(=O)C=C[C@@H]1C/C=C\CCCC(=O)O` [PGJ2, 15-deoxy-Δ12,14-prostaglandin J2], the “R value (isoTOP-ABPP ratio heavy/light) for IA-labeled cysteine of HPCA” value at HPCA was determined as 7.21. In addition, at MACROD1, the “R value (isoTOP-ABPP ratio heavy/light) for IA-labeled cysteine of MACROD1” value was 7.65. Further, the “R value (isoTOP-ABPP ratio heavy/light) for IA-labeled cysteine of PSMB8” value on PSMB8 came out at 5.86. Moreover, on REEP5, the “R value (isoTOP-ABPP ratio heavy/light) for IA-labeled cysteine of REEP5” value is on record as 7.38. Moreover, the “R value (isoTOP-ABPP ratio heavy/light) for IA-labeled cysteine of RPL24” value at RPL24 came to 6.78. On TNRC5, the “R value (isoTOP-ABPP ratio heavy/light) for IA-labeled cysteine of TNRC5” value is 11.77.
